Reference: patent publication US20250222044A1, “LIMOSILACTOBACILLUS REUTERI GOLDGUT-LR99 AND APPLICATION THEREOF” (priority 2024, published 2025)

What was measured:
[1] = tested on: Limosilactobacillus reuteri GOLDGUT-LR99; test: Antibiotic sensitivity, K-B method (Kirby-Bauer method); assay type: cell-based; parameters: key to Antibiotic susceptibility test result: R represents resistance; S represents sensitivity; conditions: susceptibility of the strain to the antibiotic
Experimental: Antibiotic sensitivity of Limosilactobacillus reuteri GOLDGUT-LR99 was determined using the K-B method (Kirby-Bauer method).

[2] = tested on: Limosilactobacillus reuteri GOLDGUT-LR99; test: Carbon source utilization and oxidation experiment (AN Biolog micro-pore plate); assay type: cell-based; conditions: substrate utilization by the strain; for Utilization (Y=OD590−OD750): 37° C. anaerobic culture for 24 hours
Experimental: The AN Biolog micro-pore plate was used for measuring the utilization and oxidation conditions of different carbon sources of Limosilactobacillus reuteri GOLDGUT-LR99, the AN microplate used nutrients and biochemical reagents, and the method included the following steps: 1 mL of Limosilactobacillus reuteri GOLDGUT-LR99 bacterial liquid of the strain to be detected at the end of logarithmic growth was pipetted and centrifuged, then the supernatant was removed, the cells was washed three times with the seed liquid and suspended with 1 mL of the seed liquid, 50 μL of the suspension was taken and diluted in 10 mL of the seed liquid, the diluent was subpacked in a Biolog plate (100 μL/pore) after mixing uniformly, and the Biolog plate with the diluent was placed in 37° C. for anaerobic culture for 24 hours. After the culture was finished, OD590 and OD750 were detected by using microplate reader, the numerical values were recorded, and the utilization conditions of carbohydrate, organic acid and other substances of the Limosilactobacillus reuteri GOLDGUT-LR99 were calculated, wherein the calculation method was as follows: Y=OD590−OD750;

CCC(=O)O[C@@H]1CC(=O)O[C@H](C)C/C=C/C=C/[C@H](O)[C@H](C)C[C@H](CC=O)[C@H](O[C@@H]2O[C@H](C)[C@@H](O[C@H]3C[C@@](C)(O)[C@@H](OC(=O)CC)[C@H](C)O3)[C@H](N(C)C)[C@H]2O)[C@H]1OC [Midecamycin]
Antibiotic susceptibility test result [1]: R

CN[C@H](CC(C)C)C(=O)N[C@H]1C(=O)N[C@@H](CC(N)=O)C(=O)N[C@H]2C(=O)N[C@H]3C(=O)N[C@H](C(=O)N[C@H](C(=O)O)c4cc(O)cc(O)c4-c4cc3ccc4O)[C@H](O)c3ccc(c(Cl)c3)Oc3cc2cc(c3O[C@@H]2O[C@H](CO)[C@@H](O)[C@H](O)[C@H]2O[C@H]2C[C@](C)(N)[C@H](O)[C@H](C)O2)Oc2ccc(cc2Cl)[C@H]1O [Vancomycin]
Antibiotic susceptibility test result [1]: R

Polymyxin
Antibiotic susceptibility test result [1]: R

CCn1cc(C(=O)O)c(=O)c2cc(F)c(N3CCNCC3)cc21 [Norfloxacin]
Antibiotic susceptibility test result [1]: R

CN(C)[C@@H]1C(O)=C(C(N)=O)C(=O)[C@@]2(O)C(O)=C3C(=O)c4c(O)cccc4[C@@](C)(O)[C@H]3C[C@@H]12 [Tetracycline]
Antibiotic susceptibility test result [1]: S

CC(C)(O/N=C(\C(=O)N[C@@H]1C(=O)N2C(C(=O)[O-])=C(C[n+]3ccccc3)CS[C@H]12)c1csc(N)n1)C(=O)O [Ceftazidime]
Antibiotic susceptibility test result [1]: S

Neomycin
Antibiotic susceptibility test result [1]: S

C[C@H]1c2cccc(O)c2C(=O)C2=C(O)[C@]3(O)C(=O)C(C(N)=O)=C(O)[C@@H](N(C)C)[C@@H]3[C@@H](O)[C@@H]21 [Doxycycline]
Antibiotic susceptibility test result [1]: S

Gentamicin
Antibiotic susceptibility test result [1]: S

CC1(C)S[C@@H]2[C@H](NC(=O)Cc3ccccc3)C(=O)N2[C@H]1C(=O)O [Benzylpenicillin]
Antibiotic susceptibility test result [1]: S

O=C(O)c1cn(C2CC2)c2cc(N3CCNCC3)c(F)cc2c1=O [Ciprofloxacin]
Antibiotic susceptibility test result [1]: R

Cc1cc(NS(=O)(=O)c2ccc(N)cc2)no1 [Sulfamethoxazole, Compound Sulfamethoxazole]
Antibiotic susceptibility test result [1]: R

CC1(C)S[C@@H]2[C@H](NC(=O)C(C(=O)O)c3ccccc3)C(=O)N2[C@H]1C(=O)O (stereo partly shown) [Carbenicillin]
Antibiotic susceptibility test result [1]: S

CC1(C)S[C@@H]2[C@H](NC(=O)[C@H](N)c3ccccc3)C(=O)N2[C@H]1C(=O)O [Ampicillin]
Antibiotic susceptibility test result [1]: S | antibiotic sensitivity (in words) [1]: sensitive

CC[C@H]1OC(=O)[C@H](C)[C@@H](O[C@H]2C[C@@](C)(OC)[C@@H](O)[C@H](C)O2)[C@H](C)[C@@H](O[C@@H]2O[C@H](C)C[C@H](N(C)C)[C@H]2O)[C@](C)(O)C[C@@H](C)C(=O)[C@H](C)[C@@H](O)[C@]1(C)O [Erythromycin]
Antibiotic susceptibility test result [1]: R

CC1=C(C(=O)O)N2C(=O)[C@@H](NC(=O)[C@H](N)C3=CCC=CC3)[C@H]2SC1 [Cefradine]
Antibiotic susceptibility test result [1]: S

CCN1CCN(C(=O)N[C@@H](C(=O)N[C@@H]2C(=O)N3[C@@H]2SC(C)(C)[C@@H]3C(=O)O)c2ccccc2)C(=O)C1=O [Piperacillin]
Antibiotic susceptibility test result [1]: S

CO/N=C(\C(=O)N[C@@H]1C(=O)N2C(C(=O)O)=C(CSc3nc(=O)c(=O)[nH]n3C)CS[C@H]12)c1csc(N)n1 [Ceftriaxone]
Antibiotic susceptibility test result [1]: S

O=C(N[C@H](CO)[C@H](O)c1ccc([N+](=O)[O-])cc1)C(Cl)Cl [Chloramphenicol]
Antibiotic susceptibility test result [1]: S

Cc1nnc(SCC2=C(C(=O)O)N3C(=O)[C@@H](NC(=O)Cn4cnnn4)[C@H]3SC2)s1 [Cefazolin]
Antibiotic susceptibility test result [1]: S

CC1=C(C(=O)O)N2C(=O)[C@@H](NC(=O)[C@H](N)c3ccccc3)[C@H]2SC1 [Cephalexin]
Antibiotic susceptibility test result [1]: S

CN(C)c1ccc(O)c2c1C[C@H]1C[C@H]3[C@H](N(C)C)C(O)=C(C(N)=O)C(=O)[C@@]3(O)C(O)=C1C2=O [Minocycline]
Antibiotic susceptibility test result [1]: S

CCC[C@@H]1C[C@@H](C(=O)N[C@@H]([C@H]2O[C@H](SC)[C@H](O)[C@@H](O)[C@H]2O)[C@H](C)Cl)N(C)C1 [Clindamycin]
Antibiotic susceptibility test result [1]: R

CCN1CCN(C(=O)N[C@@H](C(=O)N[C@@H]2C(=O)N3C(C(=O)O)=C(CSc4nnnn4C)CS[C@H]23)c2ccc(O)cc2)C(=O)C1=O [Cefperazone]
Antibiotic susceptibility test result [1]: S

NC[C@H]1O[C@H](O[C@H]2[C@H](O)[C@@H](O[C@H]3O[C@H](CO)[C@@H](O)[C@H](N)[C@H]3O)[C@H](N)C[C@@H]2N)[C@H](O)[C@@H](O)[C@@H]1O [Kanamycin]
Antibiotic susceptibility test result [1]: S

CO/N=C(\C(=O)N[C@@H]1C(=O)N2C(C(=O)O)=C(COC(N)=O)CS[C@H]12)c1ccco1 [Cefuroxime]
Antibiotic susceptibility test result [1]: S

CC1COc2c(N3CCN(C)CC3)c(F)cc3c(=O)c(C(=O)O)cn1c23 (stereo not shown) [Ofloxacin]
Antibiotic susceptibility test result [1]: R

OC[C@@H](O)[C@@H](O)[C@H](O)[C@H](O)CO [D-Mannitol]
Utilization (Y=OD590−OD750) [2]: + (when 0.1 > Y > 0.05, it is shown that the strain was able to better utilize this substance, marked as +)

CO[C@@H]1O[C@H](CO)[C@@H](O)[C@H](O)[C@H]1O [β-Methyl-D-glucoside]
Utilization (Y=OD590−OD750) [2]: − (when Y < 0.05, it is shown that the strain was not able to utilize this substance, marked as −)

L-Glutamate salt
Utilization (Y=OD590−OD750) [2]: − (when Y < 0.05, it is shown that the strain was not able to utilize this substance, marked as −)

Glycine-L-aspartic acid
Utilization (Y=OD590−OD750) [2]: − (when Y < 0.05, it is shown that the strain was not able to utilize this substance, marked as −)

C=C(CC(=O)O)C(=O)O [Itaconic acid]
Utilization (Y=OD590−OD750) [2]: − (when Y < 0.05, it is shown that the strain was not able to utilize this substance, marked as −)

CC(=O)N[C@H]1C(O)O[C@H](CO)[C@H](O)[C@@H]1O (stereo partly drawn) [N-Acetyl-D-galactosamine]
Utilization (Y=OD590−OD750) [2]: − (when Y < 0.05, it is shown that the strain was not able to utilize this substance, marked as −)

O=C1OCCN1/N=C/c1ccc([N+](=O)[O-])o1 [Furazolidone]
Antibiotic susceptibility test result [1]: S

OC[C@H]1O[C@@H](n2cnc3c(O)ncnc32)[C@H](O)[C@@H]1O [Inosine]
Utilization (Y=OD590−OD750) [2]: − (when Y < 0.05, it is shown that the strain was not able to utilize this substance, marked as −)

O=C(O)[C@@H](O)[C@@H](O)[C@H](O)[C@@H](O)C(=O)O [D-Glucarate]
utilization effect (in words) [2]: effectively utilize | Utilization (Y=OD590−OD750) [2]: ++ (when Y > 0.1, it is shown that the strain was able to effectively utilize this substance, marked as++)

OC[C@H]1O[C@@](CO)(O[C@H]2O[C@H](CO)[C@@H](O)[C@H](O)[C@H]2O)[C@@H](O[C@H]2O[C@H](CO)[C@@H](O)[C@H](O)[C@H]2O)[C@@H]1O [D-Melezitose]
Utilization (Y=OD590−OD750) [2]: − (when Y < 0.05, it is shown that the strain was not able to utilize this substance, marked as −)

Penicillin
Antibiotic susceptibility test result [1]: S

O=C(O)C(O)C(O)C(=O)O (stereo not shown) [m-Tartaric acid]
Utilization (Y=OD590−OD750) [2]: + (when 0.1 > Y > 0.05, it is shown that the strain was able to better utilize this substance, marked as +)

CCC(=O)O [Propionic acid]
Utilization (Y=OD590−OD750) [2]: − (when Y < 0.05, it is shown that the strain was not able to utilize this substance, marked as −)

C[C@@H](O)[C@H](N)C(=O)O [L-Threonine]
Utilization (Y=OD590−OD750) [2]: − (when Y < 0.05, it is shown that the strain was not able to utilize this substance, marked as −)
